Values joined by “and” are separate entries in the source; they are usually repeats but may differ in a detail not shown here. Equal values may be shown once. Read-outs that look alike come from different tables or passages of the source.
Legend:
HDAC6 [1] = target: T1, HDAC6 (Homo sapiens, UniProt Q9UBN7); assay: High content acetylation assay (AcTubulin vs AcHistone) in cultured cells; type: cell-based; settings: dose-range, TDAC activity as surrogate for HDAC6 inhibition
T1 construct: endogenous in cells
T1 sequence (Q9UBN7 1-1215): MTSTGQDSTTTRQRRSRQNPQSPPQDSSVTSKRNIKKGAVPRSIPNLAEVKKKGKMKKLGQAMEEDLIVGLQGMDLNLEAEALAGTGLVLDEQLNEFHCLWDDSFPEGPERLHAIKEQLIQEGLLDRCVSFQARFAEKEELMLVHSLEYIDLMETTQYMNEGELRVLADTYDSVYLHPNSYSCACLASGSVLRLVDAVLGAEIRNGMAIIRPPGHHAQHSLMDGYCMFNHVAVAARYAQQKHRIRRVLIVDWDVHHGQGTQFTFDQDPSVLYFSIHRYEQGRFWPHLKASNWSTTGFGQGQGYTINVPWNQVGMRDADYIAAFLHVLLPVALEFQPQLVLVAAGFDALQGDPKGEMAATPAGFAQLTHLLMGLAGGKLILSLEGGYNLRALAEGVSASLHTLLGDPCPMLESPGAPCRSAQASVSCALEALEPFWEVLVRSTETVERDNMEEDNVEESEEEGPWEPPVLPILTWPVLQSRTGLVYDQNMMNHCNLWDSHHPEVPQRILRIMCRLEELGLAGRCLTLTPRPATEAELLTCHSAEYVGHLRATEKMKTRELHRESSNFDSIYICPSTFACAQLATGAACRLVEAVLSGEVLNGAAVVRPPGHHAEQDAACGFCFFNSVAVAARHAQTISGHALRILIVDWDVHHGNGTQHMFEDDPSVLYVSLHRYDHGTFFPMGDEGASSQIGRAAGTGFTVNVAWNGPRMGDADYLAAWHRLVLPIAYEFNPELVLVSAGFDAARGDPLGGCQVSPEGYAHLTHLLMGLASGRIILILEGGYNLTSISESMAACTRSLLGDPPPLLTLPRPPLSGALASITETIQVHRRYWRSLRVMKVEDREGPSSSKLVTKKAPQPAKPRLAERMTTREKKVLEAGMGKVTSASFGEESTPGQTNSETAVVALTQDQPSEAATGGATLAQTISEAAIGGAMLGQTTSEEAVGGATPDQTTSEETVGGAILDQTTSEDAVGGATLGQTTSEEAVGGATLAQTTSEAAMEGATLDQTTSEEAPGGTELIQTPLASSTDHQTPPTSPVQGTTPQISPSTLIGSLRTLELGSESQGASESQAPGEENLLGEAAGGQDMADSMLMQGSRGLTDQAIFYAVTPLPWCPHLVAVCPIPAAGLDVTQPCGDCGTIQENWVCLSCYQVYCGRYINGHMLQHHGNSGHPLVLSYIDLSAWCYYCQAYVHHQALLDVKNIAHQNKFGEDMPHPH
Method: FIG. 2. High-throughput, high-content, quantitative detection method for identifying HDAC inhibitors. Cells are seeded in 384-well plates (2,000 cells/well) and treated with test compound, fixed, and then stained with Hoechst (nuclei), primary anti-AcTubulin monoclonal antibody and anti-AcHistone polyclonal antibody, then with compatible fluorophore-conjugated secondary antibodies. After automated image acquisition a custom analysis script identifies and masks cells, then derives quantitative fluorescence data from FITC (AcTubulin) and rhodamine (AcHistone) channels (MetaXPress; Molecular Devices).
FIG. 3. WT-161 Induction of AcTubulin (Red) and AcHistone (Blue) by HCS. As described in FIG. 2, the high content acetylation assay was employed to determine the comparative induction of acetylated histones versus acetylated tubulin across a dose-range of WT-161.
FIG. 4. […] Dose-response data from FIG. 3 have been used to generate EC50 values of cellular histone and tubulin acetylation effects of WT-161. […] HDAC activity is used to indicate biological activity of proteins mediating histone deacetylation, as this is a cellular assay measuring global effects on acetylation. TDAC activity is a surrogate measurement for HDAC6 inhibition in cultured cells.

[2] = system: human multiple myeloma cells; assay: Cell proliferation (Cell TiterGlo) synergy of HDAC inhibitor with bortezomib; type: cell-based; settings: two cultures of human multiple myeloma cells, bortezomib 0, 2.5 nM, 5.0 nM
Method: FIG. 7. […] Synergistic effects on cell proliferation were determined by varying concentrations of each HDAC inhibitor in the presence of varied concentrations of the proteasome inhibitor, bortezomib. Two cultures of human multiple myeloma cells were used for this study. Data presented are the IC50 data for the HDAC inhibitor studied (first column) in the presence of increasing concentrations of bortezomib (0, 2.5 nM, or 5.0 nM). The measurement of cell proliferation used is the Cell TiterGlo assay (Promega), which uses bioluminescence to report on ATP content in cultured cells.

[3] = Pharmacokinetics of WT-161 in CD-1 mice after intravenous administration (plasma, LC-MS/MS); type: in vivo
Method: WT-III-161 (Wt: 458.55 for free base) was dissolved in 25% DMSO, 25% Cremophor EL, and 50% saline to yield final concentration at 2 mg/mL for intravenous administration (pH=6-7). The solution was clear and light yellow, and the concentration of WT-III-161 in it was confirmed by HPLC method with an accuracy of 116.92% (Table I).
Study design, animal selection, handling and treatment were in accordance with the Shanghai Medicilon Inc. study protocol (Shanghai Medicilon Inc Study No. BRD0701). Male CD0-1 mice (body weight 23 g to 27 g) were used in this study. Before the pharmacokinetic studies, animals were randomly assigned to the treatment groups (3 animals per timepoint). Ten additional mice were used to collect plasma for calibration curves.
[…] All the samples and the dose formulation were stored at −20° C. until bioanalysis or transportation to sponsor.
The concentrations of WT-161 in plasma were determined using a high pressure liquid chromatography/mass spectrometry (LC-MS/MS) method.
The LC system comprised an Aligent liquid chromatograph equipped with an isocratic pump (1100 series), an autosampler (1100 series) and a degasser (1100 series). Mass spectrometric analysis was performed using an API3000 (triple quadrupole) instrument from AB Inc (Canada) with an ESI interface. The data acquisition and control system were created using Analyst 1.4 software from ABI Inc. Acetonitrile and methanol were HPLC grade. All other solvents and chemicals were analytical grade or better.
Pharmacokinetic software DAS 2.0 (Gaosi Data Analysis Inc., Wuhn, China) was used.
Chromatographic conditions: ColumnL Synergi Fusion-RP, 4 μm (150 mm×2.0 mm); Mobile phase: 0.1% formic acid:methanol:acetonitrile (5:90:5); Elution rate: 350 μL/min; Column temperature: 25° C.; Injection volume: 2 μL.
Scan type: positive MRM; Ion Source: Turbo spray; Ionization mode: ESI; Nebulize gas: 8 L/min; Curtain gas: 8 L/min; Collision gas: 4 L/min; Ionspray voltage: 5000 V; Temperature: 500° C.
Plasma samples (0.1 mL) were transferred to Eppendorff tubes, then 20 μL of methanol, 500 μL IS solutions (50 ng/mL) were added to it. After vortexing for 1 minute and centrifuging for 5 min at 15,000 rpm, 2 μL of supernatant was injected onto the LC-MS/MS.
The concentration in plasma below the limit of quantitation (LOQ=5 ng/mL) were designated as zero. The pharmacokinetic data analysis was performed using noncompartmental analysis modules in DAS 2.0.

HDAC6 [4] = target: T1, HDAC6; assay: HDAC biochemical (homogeneous) assay, inhibitory constants
Method: FIG. 5. HDAC Biochemical Assay Schema. 7-amino-4-methylcoumarin (7AMC) is linked by an amide bond to acetylated lysine in the context of an isoform-selective substate. Pictured here is a derived substrate for HDACs 1, 2, 3, and 6. HDAC hydrolyzes acetylated lysine, which is then a substrate for rapid trypsin digestion releasing 7AMC (shown in green) which is detected in real time by a fluorescence plate reader. Linear data captured after a pre-incubation phase (30 minutes) provides a kinetic assessment of deacetylase activity.
FIG. 6. […] Robust assay for HDACs 1, 2, 3, 5, 6, and 8 have been established.

[5] = male, mouse, CD-1 mice, IV 5 mg/kg, plasma

O=C(CCCCCCC(=O)N/N=C/c1ccc(N(c2ccccc2)c2ccccc2)cc1)NO [WT-161]
Comparative induction of acetylated tubulin versus acetylated histones (cellular selectivity) (HDAC6 [1]): Selective Inhibition of HDAC6 | Synergy with bortezomib on cell proliferation [2]: most pronounced synergy | Concentration in plasma, individual mice 1-3 ([3]; 0.033 hr post-dose, IV 5 mg/kg, 5 mg/kg): 13606.91 ng/mL and 27492.70 ng/mL and 14890.74 ng/mL | Concentration in plasma, individual mice 1-3 ([3]; 0.083 hr post-dose, IV 5 mg/kg, 5 mg/kg): 6082.36 ng/mL and 8591.87 ng/mL | Concentration in plasma, individual mice 1-3 ([3]; 0.25 hr post-dose, IV 5 mg/kg, 5 mg/kg): 1762.06 ng/mL and 1336.63 ng/mL | Concentration in plasma, individual mice 1-3 ([3]; 0.5 hr post-dose, IV 5 mg/kg, 5 mg/kg): 780.44 ng/mL and 1152.36 ng/mL | Concentration in plasma, individual mice 1-3 ([3]; 1 hr post-dose, IV 5 mg/kg, 5 mg/kg): 122.63 ng/mL and 57.74 ng/mL and 263.97 ng/mL | Concentration in plasma, individual mice 1-3 ([3]; 2 hr post-dose, IV 5 mg/kg, 5 mg/kg): 87.92 ng/mL and 114.00 ng/mL | Concentration in plasma, individual mice 1-3 ([3]; 3 hr post-dose, IV 5 mg/kg, 5 mg/kg): 25.12 ng/mL and 9.38 ng/mL and 14.37 ng/mL | Concentration in plasma, individual mice 1-3 ([3]; 4 hr post-dose, IV 5 mg/kg, 5 mg/kg): 74.08 ng/mL and 20.79 ng/mL and 7.37 ng/mL | Concentration in plasma, individual mice 1-3 ([3]; 6 hr post-dose, IV 5 mg/kg, LOQ 5 ng/mL, 5 mg/kg): BLQ and 6.57 ng/mL | Concentration in plasma, individual mice 1-3 ([3]; 8 hr post-dose, IV 5 mg/kg, LOQ 5 ng/mL): BLQ | Concentration in plasma, individual mice 1-3 ([3]; 24 hr post-dose, IV 5 mg/kg, LOQ 5 ng/mL): BLQ | Systemic clearance as percent of mouse hepatic blood flow (5.40 L/hr/kg) ([3]; CD-1 mice, IV bolus 5 mg/kg): 30.37% | concentration at 0.033 hr ([3]; male, CD-1, mouse, plasma, iv, 5 mg/kg, 0.033 hr post-dose, IV 5 mg/kg): 18700 ng/mL | concentration at 0.083 hr ([3]; male, CD-1, mouse, plasma, iv, 5 mg/kg, 0.083 hr post-dose, IV 5 mg/kg, read-out: Concentration in plasma, Mean): 8000 ng/mL | concentration at 0.083 hr ([3]; male, CD-1, mouse, plasma, iv, 5 mg/kg, 0.083 hr post-dose, IV 5 mg/kg, read-out: Concentration in plasma, individual mice 1-3): 9330 ng/mL | concentration at 0.25 hr ([3]; male, CD-1, mouse, plasma, iv, 5 mg/kg, 0.25 hr post-dose, IV 5 mg/kg, read-out: Concentration in plasma, Mean): 1760 ng/mL | concentration at 0.25 hr ([3]; male, CD-1, mouse, plasma, iv, 5 mg/kg, 0.25 hr post-dose, IV 5 mg/kg, read-out: Concentration in plasma, individual mice 1-3): 2190 ng/mL | concentration at 0.5 hr ([3]; male, CD-1, mouse, plasma, iv, 5 mg/kg, 0.5 hr post-dose, IV 5 mg/kg, read-out: Concentration in plasma, Mean): 956 ng/mL | concentration at 0.5 hr ([3]; male, CD-1, mouse, plasma, iv, 5 mg/kg, 0.5 hr post-dose, IV 5 mg/kg, read-out: Concentration in plasma, individual mice 1-3): 934 ng/mL | concentration at 1 hr ([3]; male, CD-1, mouse, plasma, iv, 5 mg/kg, 1 hr post-dose, IV 5 mg/kg): 148 ng/mL | concentration at 2 hr ([3]; male, CD-1, mouse, plasma, iv, 5 mg/kg, 2 hr post-dose, IV 5 mg/kg, read-out: Concentration in plasma, Mean): 95.2 ng/mL | concentration at 2 hr ([3]; male, CD-1, mouse, plasma, iv, 5 mg/kg, 2 hr post-dose, IV 5 mg/kg, read-out: Concentration in plasma, individual mice 1-3): 83.6 ng/mL | concentration at 3 hr ([3]; male, CD-1, mouse, plasma, iv, 5 mg/kg, 3 hr post-dose, IV 5 mg/kg): 16.3 ng/mL | concentration at 4 hr ([3]; male, CD-1, mouse, plasma, iv, 5 mg/kg, 4 hr post-dose, IV 5 mg/kg): 34.1 ng/mL | concentration at 6 hr ([3]; male, CD-1, mouse, plasma, iv, 5 mg/kg, 6 hr post-dose, IV 5 mg/kg, BLQ designated as zero, read-out: Concentration in plasma, Mean): 4.15 ng/mL | concentration at 6 hr ([3]; male, CD-1, mouse, plasma, iv, 5 mg/kg, 6 hr post-dose, IV 5 mg/kg, LOQ 5 ng/mL, read-out: Concentration in plasma, individual mice 1-3): 5.87 ng/mL | Cmax ([3]; male, CD-1, mouse, plasma, iv, 5 mg/kg, CD-1 mice, IV 5 mg/kg, read-out: Cmax): 18700 ng/mL | Cmax ([3]; male, CD-1, mouse, plasma, iv, 5 mg/kg, IV, nominal dose 5 mg/kg, read-out: Cmax (at 2 minutes after dosing)): 18700 ng/mL | Tmax ([3]; male, mouse, plasma, CD-1 mice, IV 5 mg/kg): 1.8 min | clearance ([3]; male, mouse, plasma, CD-1 mice, IV 5 mg/kg, read-out: CLZ (systemic clearance) (converted)): 27.3 mL/min/kg | MRT inf ([3]; male, mouse, plasma, CD-1 mice, IV 5 mg/kg, read-out: MRT(0-∞)): 19.8 min | half-life ([3]; male, mouse, plasma, CD-1 mice, IV 5 mg/kg, read-out: T1/2z (half-life) (converted)): 84.6 min | Vd ([3]; male, mouse, plasma, CD-1 mice, IV 5 mg/kg, read-out: VZ (volume of distribution at terminal phase)): 3.33 L/kg | AUC(0-inf) [3, 5]: 3050 ng·h/mL | AUC(0-t) [3, 5]: 3020 ng·h/mL | Tissue distribution ([3]; mice, IV 5 mg/kg): distributes well in tissues | Volume of distribution as fold of total body water (0.73 L/kg) ([3]; mice, IV 5 mg/kg): 4.56 fold | Inhibitory constant (Ki) for HDAC6, in words (HDAC6 [4]): Potent inhibition of HDAC6 | Selectivity among HDACs 1, 2, 3, 5, 6, 8, in words (HDAC6 [4]): Selective Inhibition of HDAC6

O=C(CCCCCCC(=O)Nc1ccc([C@H]2O[C@@H](CSc3nc(-c4ccccc4)c(-c4ccccc4)o3)C[C@@H](c3ccc(CO)cc3)O2)cc1)NO [tubacin, reference compound]
Synergy with bortezomib on cell proliferation [2]: most pronounced synergy
